Reference: patent US20100028447A1, “Intranasal, Buccal, And Sublingual Administration Of Metanicotine Analogs” (TARGACEPT, INC., priority 2007, published 2010)
Several values for one entry are separate records, joined by “and”; a condition that tells them apart may be missing. Equal entries are not always repeated. Entries after “also recorded” stand apart in the source; their conditions may differ. Where two headings read alike, the source gives them in different places.

Columns and labels:
[1] = In situ brain perfusion, single time-point method; settings: for Kin relative to values reported for drugs that do not substantially penetrate the CNS: 50 μM
Description: Animals used in this study were Sprague-Dawley rats (approximate weight 250-300 grams), obtained from Hilltop Lab Animals, Scottdale, Pa. Upon arrival, the rats were assigned randomly to treatment groups and acclimated for at least 24 hours. The animals were housed two per cage and identified by cage labels. A single room was used for this study. The animals were supplied with water and a commercial rodent diet ad libitum. On the day of the experiment, each rat was anesthetized intraperitoneally with Ketamine HCl/Xylazine HCl solution prior to being implanted with a cannula into the left carotid artery. Branch arteries were […], and the cardiac supply was cut off prior to brain perfusion.
Perfusion was performed using the single time-point method. […] Following 30 seconds of perfusion, the pump was stopped, and the brain was removed from the skull immediately. The brain was cut longitudinally in […]. Each left cerebral hemisphere was placed into a chilled tube, frozen on dry ice, and stored frozen at −60° C. to −80° C. until analyzed. […] Test articles were perfused at concentrations of 50 μM. The outline of the experimental treatments and the target and measured concentrations of the test articles and control compounds in the perfusate are presented in Table 3.
The left brain hemisphere from each rat was thawed and weighed. Methanol (20% aqueous) was added to each left brain hemisphere at approximately 4 mL per 1 g of brain tissue, and the mixture was homogenized using sonication with a VirSonic Ultrasonic Cell Disruptor 100 (VirTis). The test articles and two reference compounds were analyzed in the resulting homogenate by using LC/MS/MS.
The unidirectional brain transfer constants Kin (mL/g/min) were determined for the test articles and the high permeability reference, antipyrine, using the following equation for the single-point perfusion assay: […]
where: Cbr/Cpf is the apparent brain distribution volume (mL/g of brain tissue); Cbr is the concentration of drug in the brain tissue (pmol of drug per g of brain tissue); Cpf is the drug concentration in the perfusion fluid (pmol/mL of perfusate); and t is the net perfusion time (minutes).
Graphic representation and statistical analyses of the data were performed using GraphPad Prism software.

[2] = Brain-to-plasma ratio after oral gavage or intranasal administration (Example 4); type: in vivo, Sprague-Dawley rats
Description: Eight treatment groups of nine rats each were used (see Study Design, Table 6). […] The animals were housed up to three per cage and identified by cage labels. A single room was used for this study. […] Food was withheld from the animals for a minimum of 12 hours before the study and during the study, and was returned at 4 hours post-dose. Water was supplied ad libitum during the study.
All dosing solutions were prepared in isotonic PBS (phosphate buffered saline) buffer at pH 7.4. […] For intranasal dosing, the animals were anesthetized with CO2 prior to dosing, and the solution was administered in a droplet from a pipette.
For each treatment group, brain and plasma samples were collected at 10, 30 and 60 minutes post-dose. Blood samples were placed in heparinized tubles and spun at 13,000 rpm for 5 minutes. The plasma was placed in polyethylene tubes and frozen (−60 to −80° C.). Brain samples were also placed in chilled tubes and frozen (−60 to −80° C.). Samples remained chilled during subsequent processing.
Brain samples were thawed and weighed. […] After homogenation, the volume of each sample was recorded and the samples were frozen at −80° C. until analysis.
Plastic tubes were used for all steps. Standards were prepared at concentrations of 1000, 500, 250, 100, 50, 10, 5 and 1 ng/mL by serial dilution. Quality control samples were also prepared at 500, 100, and 5 ng/mL. […] Brain standards and quality control samples were treated identically to the test compound samples.
(§1) Brain samples (200 μL) were loaded onto a 96 well plate and then transferred to 400 μL of pure acetonitrile (containing 10 ng/mL nicotine as an internal standard) in a Sirocco Protein Precipitation Plate (Waters Corporation). The resulting suspensions were mixed and then filtered into a clean 96-well collection plate using a vacuum. A 200 μL aliquot of the resulting filtrate was then transferred to plastic HPLC vials for analysis.
as §1, with “Plasma” for “Brain”, “(50” for “(200”, “150” for “400”, “80” for “200”
(§2) Brain samples (200 μL) were loaded onto a 96 well plate and then transferred to 400 μL of acetonitrile containing internal standard (100 ng/mL Pindolol) in a Sirocco Protein Precipitation Plate (Waters Corporation). The resulting suspensions were mixed and then filtered into a clean 96-well collection plate using a vacuum. The resulting filtrates were then evaporated to dryness under nitrogen at 37° C. The resulting residues were reconstituted with 200 μL of water. The samples were then mixed, centrifuged, and transferred (100 μL) to plastic HPLC vials for analysis.
as §2, with “(50” for “(200”, “150” for “400”, “100” for “200”

[3] = Sprague-Dawley, rat, in vivo, 30 s
[4] = Table 5 Treatment 1: Compound A perfused with references, Average ± STD
[5] = Table 5 Treatment 1: Compound A perfused with references, Rat 1
[6] = Table 5 Treatment 1: Compound A perfused with references, Rat 2
[7] = Table 5 Treatment 1: Compound A perfused with references, Rat 3
[8] = Table 5 Treatment 2: Compound A perfused with references + CYP2D6 inhibitor Quinidine, Average ± STD
[9] = Table 5 Treatment 2: Compound A perfused with references + CYP2D6 inhibitor Quinidine, Rat 1
[10] = Table 5 Treatment 2: Compound A perfused with references + CYP2D6 inhibitor Quinidine, Rat 2
[11] = Table 5 Treatment 2: Compound A perfused with references + CYP2D6 inhibitor Quinidine, Rat 3
[12] = Sprague-Dawley, rat, in vivo, 10 mg/kg, Brain-to-Plasma Ratio
[13] = Sprague-Dawley, rat, in vivo, 10 mg/kg, Mean Ratio (brain-to-plasma)
[14] = Sprague-Dawley, rat, in vivo, intranasal, 1 mg/kg, Average brain-to-plasma ratio
[15] = Sprague-Dawley, rat, in vivo, po, 5 mg/kg, Average brain-to-plasma ratio
[16] = Table 4 Treatment 2: Compound B perfused with references + MAO inhibitor Pargyline, Rat 1
[17] = Table 4 Treatment 2: Compound B perfused with references + MAO inhibitor Pargyline, Rat 2
[18] = Table 4 Treatment 2: Compound B perfused with references + MAO inhibitor Pargyline, Rat 3

SMILES: CN[C@@H](C)C/C=C/c1cncc(OC)c1 [Compound A, (2S)-(4E)-N-methyl-5-(3-(5-methoxypyridin)yl)-4-penten-2-amine]
- Brain penetration (brain concentration, Kin) in the absence or presence of the CYP2D6 inhibitor Quinidine ([1]; N=3): no significant difference; also recorded: did not affect
- Kin relative to values reported for drugs that do not substantially penetrate the CNS [1, 3]: more than 100 times
- Brain Concentration (corrected for drug retained in vascular volume) [1, 4]: 5504.5 ± 961.7 pmol/g
- Kin [1, 4]: 0.198+ ± 0.035 mL/g/min
- Brain Concentration (corrected for drug retained in vascular volume) [1, 5]: 6558.8 pmol/g
- Kin [1, 5]: 0.236 mL/g/min
- Brain Concentration (corrected for drug retained in vascular volume) [1, 6]: 5279.1 pmol/g
- Kin [1, 6]: 0.190 mL/g/min
- Brain Concentration (corrected for drug retained in vascular volume) [1, 7]: 4675.5 pmol/g
- Kin [1, 7]: 0.168 mL/g/min
- Brain Concentration (corrected for drug retained in vascular volume) [1, 8]: 5803.0 ± 278.8 pmol/g
- Kin [1, 8]: 0.212 ± 0.010 mL/g/min
- Brain Concentration (corrected for drug retained in vascular volume) [1, 9]: 5574.4 pmol/g
- Kin [1, 9]: 0.203 mL/g/min
- Brain Concentration (corrected for drug retained in vascular volume) [1, 10]: 6113.5 pmol/g
- Kin [1, 10]: 0.223 mL/g/min
- Brain Concentration (corrected for drug retained in vascular volume) [1, 11]: 5721.1 pmol/g
- Kin [1, 11]: 0.209 mL/g/min
- Average Kin of Compound A (absence of Quinidine) compared with Compound B (absence of Pargyline) ([1]; rat, in vivo): higher
- Potential to penetrate the brain ([1]; rat, in vivo): good potential
- Plasma Conc. ([2]; Group 1, OG, 10 mg/kg, 30 min, 10 mg/kg): 216 ng/mL and 278 ng/mL
- Plasma Conc. ([2]; Group 1, OG, 10 mg/kg, 60 min, 10 mg/kg): 239 ng/mL and 234 ng/mL
- Plasma Conc. ([2]; Group 3, OG, 10 mg/kg, 10 min, 10 mg/kg): 327 ng/mL and 249 ng/mL
- Kp at 0.5 h [2, 12]: 0.044
- Kp at 1 h [2, 12]: 0.038
- concentration at 30 min ([2]; Sprague-Dawley, rat, in vivo, 10 mg/kg, Group 1, OG, 10 mg/kg, 30 min, read-out: Brain Conc.): 2.04 ng/mL and 9.6 ng/g
- concentration at 30 min ([2]; Sprague-Dawley, rat, in vivo, 10 mg/kg, Group 1, OG, 10 mg/kg, 30 min, read-out: Plasma Conc.): 174 ng/mL
- concentration at 60 min ([2]; Sprague-Dawley, rat, in vivo, 10 mg/kg, Group 1, OG, 10 mg/kg, 60 min, read-out: Brain Conc.): 1.26 ng/mL and 6.08 ng/g
- concentration at 60 min ([2]; Sprague-Dawley, rat, in vivo, 10 mg/kg, Group 1, OG, 10 mg/kg, 60 min, read-out: Plasma Conc.): 158 ng/mL
- concentration at 60 min ([2]; Sprague-Dawley, rat, in vivo, 10 mg/kg, Group 2, OG, 10 mg/kg, 60 min, read-out: Brain Conc.): 2.81 ng/mL and 13.9 ng/g
- concentration at 10 min ([2]; Sprague-Dawley, rat, in vivo, 10 mg/kg, Group 3, OG, 10 mg/kg, 10 min, read-out: Plasma Conc.): 313 ng/mL
- Kp at 0.5 h [2, 13]: 0.042
- Kp at 1 h [2, 13]: 0.032
- Kp at […] [2, 13]: 0.039
- Kp at 0.5 h ([2]; Sprague-Dawley, rat, in vivo, intranasal, 0.1 mg/kg, Brain-to-plasma ratio): 5.52
- Kp at […] ([2]; Sprague-Dawley, rat, in vivo, intranasal, 0.1 mg/kg, Brain-to-plasma ratio (average value)): 2.21
- Kp at 0.5 h [2, 14]: 4.28
- Kp at 1 h [2, 14]: 6.4
- Kp at […] [2, 14]: 1.58
- Kp at 0.5 h [2, 15]: 2.37
- Kp at 1 h [2, 15]: 3.38
- Kp at […] [2, 15]: 1.75
- Exposures in plasma and brain, Compound A compared with Compound B ([2]; by both intranasal and oral administration): much greater
- Brain-to-plasma ratios, intranasal as opposed to oral gavage administration ([2]; rat, in vivo): generally greater

SMILES: CNCC/C=C/c1cccnc1 [Compound B, N-methyl-(4-pyridin-3-yl-but-3-enyl)-amine]
- Brain concentration and Kin in the presence of the MAO inhibitor Pargyline compared to alone [1, 3]: ^Significantly higher than the corresponding values of Compound B in the absence of enzymatic inhibitor (p < 0.05, two-tailed t-test).
- Kin relative to values reported for drugs that do not substantially penetrate the CNS [1, 3]: more than 100 times
- Brain Concentration (corrected for drug retained in vascular volume) ([1]; Table 4 Treatment 1: Compound B perfused with references, Average ± STD): 2681.0 ± 513.0 pmol/g
- Brain Concentration (corrected for drug retained in vascular volume) ([1]; Table 4 Treatment 1: Compound B perfused with references, Rat 1): 2725.9 pmol/g
- Brain Concentration (corrected for drug retained in vascular volume) ([1]; Table 4 Treatment 1: Compound B perfused with references, Rat 2): 3170.1 pmol/g
- Brain Concentration (corrected for drug retained in vascular volume) ([1]; Table 4 Treatment 1: Compound B perfused with references, Rat 3): 2147.0 pmol/g
- Brain Concentration (corrected for drug retained in vascular volume) ([1]; Table 4 Treatment 2: Compound B perfused with references + MAO inhibitor Pargyline, Average ± STD): 3652.8^ ± 293.1 pmol/g
- Brain Concentration (corrected for drug retained in vascular volume) [1, 16]: 3358.2 pmol/g
- Kin [1, 16]: 0.110 mL/g/min
- Brain Concentration (corrected for drug retained in vascular volume) [1, 17]: 3655.8 pmol/g
- Kin [1, 17]: 0.120 mL/g/min
- Brain Concentration (corrected for drug retained in vascular volume) [1, 18]: 3944.4 pmol/g
- Kin [1, 18]: 0.129 mL/g/min
- Brain concentration and Kin in the presence of the MAO inhibitor Pargyline compared to alone ([1]; rat, in vivo): significantly increased
- Potential to penetrate the brain ([1]; rat, in vivo): good potential
- Kp at […] ([2]; Sprague-Dawley, rat, in vivo, inhaled or intranasal, 1 mg/kg, intranasal 1 mg/kg with pargyline, 10 minute time point, two animals, read-out: Brain-to-plasma ratio (average value)): 0.89
- Kp at 0.5 h ([2]; Sprague-Dawley, rat, in vivo, inhaled or intranasal, 1 mg/kg, intranasal 1 mg/kg with pargyline, 30 minute time point, one animal, read-out: Brain-to-plasma ratio): 0.21
- Kp at […] ([2]; Sprague-Dawley, rat, in vivo, inhaled or intranasal, 1 mg/kg, intranasal 1 mg/kg without pargyline, 10 minute time point, two animals, read-out: Brain-to-plasma ratio (average value)): 1.09
- Kp ([2]; Sprague-Dawley, rat, in vivo, po, 10 mg/kg, oral gavage administration, two animals, both at the minute time point): 0.22
